From the NIST ThermoML archive (doi:10.1021/je060343y)

Key:
[1] = 101 kPa, Liquid
[2] = φn = volume fraction of the nth substance listed; conditions: 101 kPa, Liquid

CCOC(=O)CCl [ethyl chloroethanoate]
[1]
Conditions	mass density [kg/m3]	speed of sound [m/s]
303.15 K	1139.29	1229
308.15 K	1132.5	1212
313.15 K	1125.9	1198
318.15 K	1119.9	1177

CCOC(=O)CC#N [ethyl cyanoacetate] + CNC(C)=O
[2]
Conditions	mass density [kg/m3]	speed of sound [m/s]
303.15 K, φ2 = 0	1051.4	1397
303.15 K, φ2 = 0.0529	1048.11	1396
303.15 K, φ2 = 0.186	1036.06	1391
303.15 K, φ2 = 0.2745	1027.82	1389
303.15 K, φ2 = 0.3672	1018.95	1386
303.15 K, φ2 = 0.4502	1010.93	1384
303.15 K, φ2 = 0.5435	1001.23	1380
303.15 K, φ2 = 0.5664	998.75	1379
303.15 K, φ2 = 0.7307	980.97	1375
303.15 K, φ2 = 0.8795	964.97	1370
308.15 K, φ2 = 0	1046.5	1385
308.15 K, φ2 = 0.0529	1041.91	1384
308.15 K, φ2 = 0.1862	1029.63	1380
308.15 K, φ2 = 0.2747	1021.42	1378
308.15 K, φ2 = 0.3675	1012.63	1375
308.15 K, φ2 = 0.4504	1004.44	1373
308.15 K, φ2 = 0.5438	994.68	1371
308.15 K, φ2 = 0.5666	992.26	1370
308.15 K, φ2 = 0.7309	974.66	1367
308.15 K, φ2 = 0.8796	958.76	1365
313.15 K, φ2 = 0	1040.8	1368
313.15 K, φ2 = 0.0528	1036.3	1366
313.15 K, φ2 = 0.1857	1024.28	1362
313.15 K, φ2 = 0.2741	1015.97	1359
313.15 K, φ2 = 0.3667	1007.36	1356
313.15 K, φ2 = 0.4497	999.41	1353
313.15 K, φ2 = 0.543	990.26	1349
313.15 K, φ2 = 0.5659	987.92	1348
313.15 K, φ2 = 0.7303	971.38	1343
313.15 K, φ2 = 0.8793	956.39	1337
318.15 K, φ2 = 0	1034.7	1359
318.15 K, φ2 = 0.0527	1030.52	1358
318.15 K, φ2 = 0.1854	1018.59	1356
318.15 K, φ2 = 0.2737	1010.48	1352
318.15 K, φ2 = 0.3663	1001.85	1348
318.15 K, φ2 = 0.4492	994.13	1345
318.15 K, φ2 = 0.5425	985.18	1341
318.15 K, φ2 = 0.5654	982.97	1340
318.15 K, φ2 = 0.7299	966.83	1332
318.15 K, φ2 = 0.8791	952.07	1324

CNC(C)=O [N-methylacetamide]
[1]
Conditions	mass density [kg/m3]	speed of sound [m/s]
303.15 K	951.3	1367
308.15 K	945.9	1362
313.15 K	943.6	1334
318.15 K	939.9	1319

CCOC(C)=O [ethyl acetate]
[1]
Conditions	mass density [kg/m3]	speed of sound [m/s]
303.15 K	888.9	1119
308.15 K	882.6	1098
313.15 K	875.9	1081
318.15 K	869.6	1058

CNC(C)=O [N-methylacetamide] + CCOC(=O)CCl
[2], φ1 = 1
Conditions	mass density [kg/m3]	speed of sound [m/s]
303.15 K	951.3	1367
308.15 K	945.9	1362
313.15 K	943.6	1334
318.15 K	939.9	1319
